In general, solubility refers to the concentration that dissolves in the medium under given conditions. Higher therefore signals a readily soluble substance. As a reminder, the IC50 is the midpoint of a concentration-inhibition curve.

The values that follow come from patent US11970494B2, “6-heteroaryloxy benzimidazoles and azabenzimidazoles as JAK2 inhibitors” (Ajax Therapeutics, Inc., priority 2021, dated 2024).

The nature of data set [1]: Kinetic Solubility Assay. To be noted: aqueous buffer, kinetic from dmso stock, kinetic solubility in PBS (pH 4.0 and pH 7.4 in method; pH of table values not stated), RT. In kind it is physicochemical. The protocol: Stock solutions of test compounds are prepared in DMSO at the concentration of 10 mM, and a stock solution of control compound is prepared in DMSO at the concentration of 30 mM. Diclofenac is used as positive control in the assay. 30 μL stock solution of each compound is placed into their a 96-well rack, followed by adding 970 μL of PBS at pH 4.0 and pH 7.4 into each vial of the cap-less solubility sample plate. This study is performed in duplicate. One stir stick is added to each vial and then vials are sealed using a molded PTDE/SIL 96-Well Plate Cover. The solubility sample plate is transferred to the Thermomixer comfort plate shaker and incubated at RT for 2 hours with shaking at 1100 rpm. After 2 hours incubation, stir sticks are removed using a big magnet and all samples from the solubility sample plate are transferred into the filter plate. All the samples are filtered by vacuum manifold. The filtered samples are diluted with methanol. Samples are analyzed by LC-MS/MS and quantified against a standard of known concentration in DMSO using LC coupled with Mass spectral peak identification and quantitation. The solubility values of the test compounds are calculated as follows, wherein INJ VOL is injection volume, DF is dilution factor, and STD is standard: […]

The subject of data set [2] is JAK2-mediated pSTAT5 signaling in constitutively active essential thrombocytopenia cells carrying the V617F mutation. In words: SET2-pSTAT5 Cellular Assay. In kind it is cell-based. The note with it: Homo sapiens. The protocol: This assay measures inhibition of JAK2-mediated pSTAT5 signaling in constitutively active essential thrombocytopenia cells carrying the V617F mutation. Cells are harvested from a flask into cell culture medium, and the number of cells is counted. The cells are diluted with culture medium and 100 μL of cell suspension (50000/well) is added into each well of a 96-well cell culture plate. A solution of test compound is added to the assay plate. The plates are covered with a lid and placed in a 37° C. 5% CO2 incubator for 4 hours. After 4 hours, the cells are spun, and the cell pellets are re-suspended with 100 μL cold PBS. Then, the cells are spun again at 4° C. and 4000 rpm for 5 min. PBS is aspirated, and 25 μL lysis buffer (with protease and phosphatase inhibitor cocktail) is added to each cell pellet. The cell lysate is shaken at 4° C. for 20 min to fully lyse the cells. The cell lysate is spun at 4° C. and 4000 rpm for 15 min, and then the supernatant is transferred into a new plate and stored at −80° C. Meso-scale discovery (MSD) is used to analyze plates as follows: a standard MSD plate is coated with capture antibody in PBS (40 μL/well) and is incubated at 4° C. overnight with shaking. The MSD plate is washed three times with 150 μL/well of 1×MSD Wash Buffer (Tris-buffered saline with 0.1% Tween® 20 detergent, TBST). The MSD plates are then blocked with 150 μL of blocking buffer (5% BSA in TBST) and shaken for 1 h at room temperature and 600 rpm. The MSD plate is washed three times with 150 μL/well of 1×MSD Wash Buffer (TBST). Sample lysates are then added to MSD plates (25 μL/well) and shaken for 1 h at room temperature and 600 rpm. The MSD plate is washed three times with 150 μL/well of 1×MSD Wash Buffer (TBST). Detection antibody (prepared in Antibody Detection buffer, 1% BSA in 1×TBST) is then added to the MSD plates, and they are shaken for 1 h at room temperature and 600 rpm. The MSD plate is washed three times with 150 μL/well of 1×MSD Wash Buffer (TBST). A secondary detection antibody (prepared in Antibody Detection buffer, 1% BSA in 1×TBST) is then added to the MSD plates, and they are shaken for 1 h at room temperature and 600 rpm. The MSD plate is washed three times with 150 μL/well of 1×MSD Wash Buffer (TBST). MSD reading buffer (1×) is added to the plates (150 μL/well), and they are diluted from 4× with water. The plates are imaged using an MSD imaging instrument according to the manufacturer's instructions.

Data set [3] concerns the target T1, JAK1 (Homo sapiens, UniProt P23458).
T1 construct: made in house; host or cells: T7 phage in BL21-derived E. coli or HEK-293 cells
In words: JAK Family Selectivity Assay: JAK1 vs JAK2 binding affinity. To be noted: Kd JAK1 over Kd JAK2. The protocol:
Provided compounds are evaluated for selectivity by comparing their JAK2 binding affinity (Kd) in the above JAK2 Binding Assay with their binding affinity (Kd) for one or more other kinases. Binding affinity for other kinases is determined as follows: Kinase-tagged T7 phage strains are prepared in an E. coli host derived from the BL21 strain. E. coli are grown to log-phase and infected with T7 phage and incubated with shaking at 32° C. until lysis. The lysates are centrifuged and filtered to remove cell debris. The remaining kinases are produced in HEK-293 cells and subsequently tagged with DNA for qPCR detection. Streptavidin-coated magnetic beads are treated with biotinylated small molecule ligands for 30 minutes at room temperature to generate affinity resins for kinase assays. The liganded beads are blocked with excess biotin and washed with blocking buffer (SeaBlock (Pierce), 1% BSA, 0.05% Tween 20, 1 mM DTT) to remove unbound ligand and to reduce non-specific binding. Binding reactions are assembled by combining kinases, liganded affinity beads, and test compounds in 1× binding buffer (20% SeaBlock, 0.17×PBS, 0.05% Tween 20, 6 mM DTT). Test compounds are prepared as 111× stocks in 100% DMSO. Kds are determined using an 11-point 3-fold compound dilution series with three DMSO control points. All compounds for Kd measurements are distributed by acoustic transfer (non-contact dispensing) in 100% DMSO. The compounds are then diluted directly into the assays such that the final concentration of DMSO is 0.9%. All reactions are performed in polypropylene 384-well plate. Each has a final volume of 0.02 ml. The assay plates are incubated at room temperature with shaking for 1 hour and the affinity beads are washed with wash buffer (1×PBS, 0.05% Tween 20). The beads are then re-suspended in elution buffer (1× PBS, 0.05% Tween 20, 0.5 μM non-biotinylated affinity ligand) and incubated at room temperature with shaking for 30 minutes. The kinase concentration in the eluates is measured by qPCR. […] In some embodiments, provided compounds may be JAK2-selective over one or more of the following kinases: JAK1, JAK3, and Tyk2.

The mark [4] stands for this setting: SET-2, SET2 cells, pSTAT5, 4 hours, MSD, read-out: IC50.

≈ marks a conversion by molar mass, not a printed value. Where two headings read alike, the source gives them in different places. Bounds are passed on as bounds.

T1 sequence (P23458 whole entry): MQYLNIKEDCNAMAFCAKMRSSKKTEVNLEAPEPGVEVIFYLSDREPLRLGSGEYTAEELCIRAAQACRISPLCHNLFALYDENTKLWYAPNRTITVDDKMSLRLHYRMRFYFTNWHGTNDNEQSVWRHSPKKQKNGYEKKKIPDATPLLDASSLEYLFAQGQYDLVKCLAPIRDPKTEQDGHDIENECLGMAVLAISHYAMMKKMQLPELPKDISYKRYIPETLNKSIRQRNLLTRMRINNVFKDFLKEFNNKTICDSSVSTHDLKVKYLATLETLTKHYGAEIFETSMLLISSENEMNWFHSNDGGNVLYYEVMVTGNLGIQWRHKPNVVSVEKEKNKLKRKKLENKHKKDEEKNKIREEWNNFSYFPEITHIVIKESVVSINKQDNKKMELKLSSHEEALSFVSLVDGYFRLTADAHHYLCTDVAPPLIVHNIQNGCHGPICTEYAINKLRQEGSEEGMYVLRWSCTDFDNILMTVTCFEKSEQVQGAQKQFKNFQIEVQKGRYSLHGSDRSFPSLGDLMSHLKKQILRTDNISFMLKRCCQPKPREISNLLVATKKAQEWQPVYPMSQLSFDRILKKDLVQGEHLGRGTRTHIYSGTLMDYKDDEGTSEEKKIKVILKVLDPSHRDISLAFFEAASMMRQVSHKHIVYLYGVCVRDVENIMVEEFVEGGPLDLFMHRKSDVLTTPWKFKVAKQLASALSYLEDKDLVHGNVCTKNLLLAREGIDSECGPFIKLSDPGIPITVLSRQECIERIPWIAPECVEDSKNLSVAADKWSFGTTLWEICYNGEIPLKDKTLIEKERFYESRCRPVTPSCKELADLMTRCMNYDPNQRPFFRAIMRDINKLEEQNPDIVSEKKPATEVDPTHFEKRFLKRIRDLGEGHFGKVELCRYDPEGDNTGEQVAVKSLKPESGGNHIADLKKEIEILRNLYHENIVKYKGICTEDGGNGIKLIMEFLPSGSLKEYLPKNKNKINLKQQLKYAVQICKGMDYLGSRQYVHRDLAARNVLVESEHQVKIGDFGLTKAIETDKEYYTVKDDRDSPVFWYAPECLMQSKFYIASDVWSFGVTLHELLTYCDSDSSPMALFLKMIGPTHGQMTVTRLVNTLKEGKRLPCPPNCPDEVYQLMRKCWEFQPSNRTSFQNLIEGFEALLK

On to `CO[C@@H]1CCN(C(=O)Nc2cc(Oc3cnc4nc(Nc5cc6n(n5)CCC65CCC5)n(C)c4c3C#N)ccn2)C1` [Example I-60, (R)-N-(4-((7-cyano-2-((5′,6′-dihydrospiro[cyclobutane-1,4′-pyrrolo[1,2-b]pyrazol]-2′-yl)amino)-1-methyl-1H-imidazo[4,5-b]pyridin-6-yl)oxy)pyridin-2-yl)-3-methoxypyrrolidine-1-carboxamide], for which the solubility at 2 h in data set [1] fell in the range of 9 to 100 µM (≈ 4.99 to 55.5 µg/mL). In addition, in data set [2] (setting [4]), the IC50 is less than 125 nM. In data set [3], the “JAK1/JAK2 Kd/Kd ratio” value was “B (Kd/Kd ratio <1000 and ≥300)”.
`COC(=O)Nc1cc(Oc2cnc3nc(Nc4cc5n(n4)CCC54CCC4)n(C)c3c2C#N)ccn1` [Example I-57, methyl(4-((7-cyano-2-((5′,6′-dihydrospiro[cyclobutane-1,4′-pyrrolo[1,2-b]pyrazol]-2′-yl)amino)-1-methyl-1H-imidazo[4,5-b]pyridin-6-yl)oxy)pyridin-2-yl)carbamate] yielded a solubility at 2 h in data set [1] of 0.1 to 9 µM (≈ 0.0486 to 4.37 µg/mL). Also, in data set [2] (SET-2, 4 h), the half-inhibitory concentration (IC50) was in the range of 125 to 200 nM.
In data set [1], `Cn1cc(C(F)(F)F)cc(Nc2nc3ncc(Oc4ccnc(NC(=O)OCCN5CCOCC5)c4)c(C#N)c3n2C)c1=O` [Example I-15, 2-Morpholinoethyl(4-((7-cyano-1-methyl-2-((1-methyl-2-oxo-5-(trifluoromethyl)-1,2-dihydropyridin-3-yl)amino)-1H-imidazo[4,5-b]pyridin-6-yl)oxy)pyridin-2-yl)carbamate] came in with a solubility at 2 h of 9 to 100 µM (≈ 5.52 to 61.4 µg/mL). For the same compound, in data set [2] (setting [4]), the IC50 is less than 125 nM. Also, in data set [3], the “JAK1/JAK2 Kd/Kd ratio” value is “B (Kd/Kd ratio <1000 and ≥300)”.
Regarding `CO[C@H]1CCN(C(=O)Nc2cc(Oc3cnc4nc(Nc5cc(C(F)(F)F)cn(C)c5=O)n(C)c4c3C#N)ccn2)C1` [Example I-14, (S)-N-(4-((7-cyano-1-methyl-2-((1-methyl-2-oxo-5-(trifluoromethyl)-1,2-dihydropyridin-3-yl)amino)-1H-imidazo[4,5-b]pyridin-6-yl)oxy)pyridin-2-yl)-3-methoxypyrrolidine-1-carboxamide], the solubility at 2 h in data set [1] lay within 0.1 to 9 µM (≈ 0.0584 to 5.25 µg/mL). Also, in data set [2] (setting [4]), the IC50 was less than 125 nM. The “JAK1/JAK2 Kd/Kd ratio” value in data set [3] is listed as “A (Kd/Kd ratio ≥1000)”.
For `COCC(=O)Nc1cc(Oc2cnc3nc(Nc4cc(C(F)(F)F)cn(C)c4=O)n(C)c3c2Cl)ccn1` [Example I-75, N-(4-((7-chloro-1-methyl-2-((1-methyl-2-oxo-5-(trifluoromethyl)-1,2-dihydropyridin-3-yl)amino)-1H-imidazo[4,5-b]pyridin-6-yl)oxy)pyridin-2-yl)-2-methoxyacetamide], in that order: 0.1 to 9 µM (≈ 0.0538 to 4.84 µg/mL), less than 125 nM and “A (Kd/Kd ratio ≥1000)”.
`COC(=O)Nc1cc(Oc2cnc3nc(Nc4cc(C(F)(F)F)cn(C)c4=O)n(C)c3c2C#N)ccn1` [Example I-3, Methyl (4-((7-cyano-1-methyl-2-((1-methyl-2-oxo-5-(trifluoromethyl)-1,2-dihydropyridin-3-yl)amino)-1H-imidazo[4,5-b]pyridin-6-yl)oxy)pyridin-2-yl)carbamate]: the solubility at 2 h in data set [1] was in the range of 0.1 to 9 µM (≈ 0.0514 to 4.63 µg/mL). The IC50 in data set [2] (SET-2, 4 h) was less than 125 nM. Further, the “JAK1/JAK2 Kd/Kd ratio” value in data set [3] was “A (Kd/Kd ratio ≥1000)”.
As to `COC1CN(C(=O)Nc2cc(Oc3cnc4nc(Nc5cc6n(n5)CCC65CCC5)n(C)c4c3C#N)ccn2)C1` [Example I-61, N-(4-((7-cyano-2-((5′,6′-dihydrospiro[cyclobutane-1,4′-pyrrolo[1,2-b]pyrazol]-2′-yl)amino)-1-methyl-1H-imidazo[4,5-b]pyridin-6-yl)oxy)pyridin-2-yl)-3-methoxyazetidine carboxamide], the solubility at 2 h in data set [1] is 0.1 to 9 µM (≈ 0.0541 to 4.87 µg/mL). Besides, the IC50 in data set [2] (setting [4]) is less than 125 nM. Moreover, the “JAK1/JAK2 Kd/Kd ratio” value in data set [3] is “A (Kd/Kd ratio ≥1000)”.
Take `CN(C)C(=O)Nc1cc(Oc2cnc3nc(Nc4cc5n(n4)CCC54CCC4)n(C)c3c2C#N)ccn1` [Example I-56, 3-(4-((7-cyano-2-((5′,6′-dihydrospiro[cyclobutane-1,4′-pyrrolo[1,2-b]pyrazol]-2′-yl)amino)-1-methyl-1H-imidazo[4,5-b]pyridin-6-yl)oxy)pyridin-2-yl)-1,1-dimethylurea]: the solubility at 2 h in data set [1] lay in the range of 9 to 100 µM (≈ 4.49 to 49.9 µg/mL). Besides, the IC50 in data set [2] (SET-2, 4 h) was 125 to 200 nM.
For the compound `COC1CN(C(=O)Nc2cc(Oc3cnc4nc(Nc5cc6n(n5)CCCC6(F)F)n(C)c4c3C#N)ccn2)C1` [Example I-26, N-(4-((7-cyano-2-((4,4-difluoro-4,5,6,7-tetrahydropyrazolo[1,5-a]pyridin-2-yl)amino)-1-methyl-1H-imidazo[4,5-b]pyridin-6-yl)oxy)pyridin-2-yl)-3-methoxyazetidine-1-carboxamide], in data set [1], the solubility at 2 h fell in the range of 9 to 100 µM (≈ 4.95 to 55.1 µg/mL). Moreover, the IC50 in data set [2] (setting [4]) fell in the range of 200 to 1000 nM.
For `CC(=O)Nc1cc(Oc2cnc3nc(Nc4cc5n(n4)CCCC54CC4)n(C)c3c2C#N)ccn1` [Example I-114, N-(4-((7-cyano-2-((6′,7′-dihydro-5′H-spiro[cyclopropane-1,4′-pyrazolo[1,5-a]pyridin]-2′-yl)amino)-1-methyl-1H-imidazo[4,5-b]pyridin-6-yl)oxy)pyridin-2-yl)acetamide], in that order: 9 to 100 µM (≈ 4.23 to 47 µg/mL) and 200 to 1000 nM.
For `Cn1c(Nc2cc3n(n2)CCOC3(C)C)nc2ncc(Oc3ccnc(NC(=O)O[C@@H]4CCOC4)c3)c(C#N)c21` [Example I-48, (R)-Tetrahydrofuran-3-yl(4-((7-cyano-2-((4,4-dimethyl-6,7-dihydro-4H-pyrazolo[5,1-c][1,4]oxazin-2-yl)amino)-1-methyl-1H-imidazo[4,5-b]pyridin-6-yl)oxy)pyridin-2-yl)carbamate], in that order: 0.1 to 9 µM (≈ 0.0546 to 4.91 µg/mL) and 1000 to 5000 nM.
For `CC(=O)Nc1cc(Oc2cnc3nc(Nc4cc5n(n4)CCOCC5(C)C)n(C)c3c2C#N)ccn1` [Example I-118, N-(4-((7-cyano-2-((4,4-dimethyl-4,5,7,8-tetrahydropyrazolo[1,5-d][1,4]oxazepin-2-yl)amino)-1-methyl-1H-imidazo[4,5-b]pyridin-6-yl)oxy)pyridin-2-yl)acetamide], in that order: 9 to 100 µM (≈ 4.39 to 48.8 µg/mL) and 200 to 1000 nM.
